# US4866038A, “Method of stimulating integumental melanocytes by topical application of analogs of alpha-msh” (University Patents, Inc., priority 1988, dated 1989)
# Where two headings read alike, the source gives them in different places. Non-standard residues stand in square brackets, D forms with d. Residues, ends and D or L forms follow the SMILES beside them. *: point of attachment. Phe(4-NO2) = N[C@@H](Cc1ccc([N+](=O)[O-])cc1)C(=O)O; Nle = CCCC[C@H](N)C(=O)O; For = O=C*
# Tests used:
# frog (Rana pipiens) = assay type: cell-based
# Protocol: (§1) Biological effect on in vivo and in vitro melanosome dispersion was examined using the frog (Rana pipiens) and the lizard (Anolis caroliniensis). [See Hadley et al., Science 213:1025-1027(1981)]; similar examinations were conducted with respect to the duration of its ability to stimulate melanosome dispersion in vitro using the skin bioassay as described in Shimume, Endrochrinology, 54:553-560(1954). The in vitro results are depicted in Table I.
# [1] = test system: lizard (Anolis caroliniensis); assay type: cell-based
# Protocol: as §1
Compound,Relative Potency Frog (frog (Rana pipiens)),further results
CSCC[C@H](NC(C)=O)C(=O)N[C@@H](CCC(=O)O)C(=O)N[C@@H](Cc1c[nH]cn1)C(=O)N[C@H](C)C(=O)N[C@@H](CCCNC(=N)N)C(=O)N[C@@H](Cc1c[nH]c2ccccc12)C(=O)NCC(=O)N[C@@H](CCCCN)C(N)=O [Ac--[D-Ala^7]--alpha-MSH4-11 --NH2] (Ac-MEH[dA]RWGK-NH2),0.001,–
CC(=O)N[C@@H](CCC(=O)O)C(=O)N[C@@H](Cc1c[nH]cn1)C(=O)N[C@H](Cc1ccccc1)C(=O)N[C@@H](CCCNC(=N)N)C(=O)N[C@@H](Cc1c[nH]c2ccccc12)C(=O)NCC(=O)N[C@@H](CCCCN)C(N)=O [Ac--[D-Phe^7]--alpha-MSH5-11 --NH2] (Ac-EH[dF]RWGK-NH2),0.01,–
CCCC[C@H](NC(C)=O)C(=O)N[C@@H](CCC(=O)O)C(=O)N[C@@H](Cc1c[nH]cn1)C(=O)N[C@H](Cc1ccccc1)C(=O)N[C@@H](CCCNC(=N)N)C(=O)N[C@@H](Cc1ccccc1)C(=O)NCC(=O)N[C@@H](CCCCN)C(N)=O [Ac--[Nle^4 --D-Phe^7 --Phe^9]--alpha-MSH4-11 --NH2] (Ac-[Nle]EH[dF]RFGK-NH2),0.017,–
CCCC[C@H](NC(C)=O)C(=O)N[C@@H](CCC(=O)O)C(=O)N[C@@H](Cc1c[nH]cn1)C(=O)N[C@H](Cc1ccccc1)C(=O)N[C@@H](CCCNC(=N)N)C(=O)N[C@@H](Cc1cn(C=O)c2ccccc12)C(=O)NCC(=O)N[C@@H](CCCCN)C(N)=O [Ac--[Nle^4 --D-Phe^7 --TrpFor^9]--alpha-MSH4-11 --NH2] (Ac-[Nle]EH[dF]RW(For)GK-NH2),0.033,–
CCCC[C@H](NC(C)=O)C(=O)N[C@@H](CCC(=O)O)C(=O)N[C@@H](Cc1c[nH]cn1)C(=O)N[C@H](Cc1ccccc1)C(=O)N[C@@H](CCCNC(=N)N)C(=O)N[C@@H](Cc1c[nH]c2ccccc12)C(N)=O [Ac--[Nle^4 --D-Phe^7 --alpha-MSH4-9 --NH2] (Ac-[Nle]EH[dF]RW-NH2),–,Relative Potency Lizard [1]: 7.14
CCCC[C@H](NC(C)=O)C(=O)N[C@@H](CCC(=O)O)C(=O)N[C@@H](Cc1c[nH]cn1)C(=O)N[C@H](Cc1ccc(O)cc1)C(=O)N[C@@H](CCCNC(=N)N)C(=O)N[C@@H](Cc1c[nH]c2ccccc12)C(=O)NCC(=O)N[C@@H](CCCCN)C(N)=O [Ac--[Nle^4 --D-Tyr^7]--alpha-MSH4-11 --NH2] (Ac-[Nle]EH[dY]RWGK-NH2),–,Relative Potency Lizard [1]: 1.0
CSCC[C@H](NC(C)=O)C(=O)N[C@@H](CCC(=O)O)C(=O)N[C@@H](Cc1c[nH]cn1)C(=O)N[C@@H](Cc1ccc([N+](=O)[O-])cc1)C(=O)N[C@@H](CCCNC(=N)N)C(=O)N[C@@H](Cc1c[nH]c2ccccc12)C(=O)NCC(=O)N[C@@H](CCCCN)C(N)=O [Ac--[Phe(pNO2)^7]--alpha-MSH4-11 --NH2] (Ac-MEH[Phe(4-NO2)]RWGK-NH2),0.0003,–
CC(=O)N[C@@H](Cc1ccc(O)cc1)C(=O)N[C@@H](CCC(=O)O)C(=O)N[C@@H](Cc1c[nH]cn1)C(=O)N[C@H](Cc1ccccc1)C(=O)N[C@@H](CCCNC(=N)N)C(=O)N[C@@H](Cc1c[nH]c2ccccc12)C(=O)NCC(N)=O [Ac--[Tyr^4 --D-Phe^7 --alpha-MSH4-10 --NH2] (Ac-YEH[dF]RWG-NH2),0.005,–
CC(=O)N[C@@H](Cc1ccc(O)cc1)C(=O)N[C@@H](CCC(=O)O)C(=O)N[C@@H](Cc1c[nH]cn1)C(=O)N[C@H](Cc1ccccc1)C(=O)N[C@@H](CCCNC(=N)N)C(=O)N[C@@H](Cc1c[nH]c2ccccc12)C(=O)NCC(=O)N[C@@H](CCCCN)C(N)=O [Ac--[Tyr^4 --D-Phe^7]--alpha-MSH4-11 --NH2] (Ac-YEH[dF]RWGK-NH2),0.01,–
Ac--[Phe--Gly^7 ]--alpha-MSH4-11 --NH2,–,"Relative Potency Frog (frog (Rana pipiens); in vitro skin bioassay, alpha-MSH = 1.0): 0.10"
